What all share (assay type): cell-based
The subject of assay [1] is Florfenicol-resistant Pasteurella multocida. As to the kind of experiment: Broth microdilution susceptibility testing (MIC), florfenicol-resistant Pasteurella multocida. The conditions noted are these: for MIC: Pasteurella multocida, broth microdilution (NCCLS, 2002), florfenicol-resistant strain, read-out: Minimal inhibitory concentration against Florfenicol-resistant Pasteurella multocida. The protocol:
(§1) The list is not intended, nor should it be construed, to limit the scope of this invention in any manner whatsoever.
(§2) Compounds were tested for antimicrobial activity against several bacterial stains using standard broth microdilution susceptibility testing methodology (NCCLS, 2002). […] The enhanced activity of Compound 1 is especially noteworthy.
(§3) NCCLS. 2002. Performance standards for antimicrobial disk and dilution susceptibility tests for bacteria isolated from animals; approved standard-second edition. NCCLS document M31-A2 [ISBN 1-56238-461-9]. NCCLS, 940 West Valley Road, Suite 1400, Wayne, Pa. 19087-1898 USA.

Another assay has as its system Escherichia coli. As to the kind of experiment: Broth microdilution susceptibility testing (MIC), Escherichia coli. The conditions noted are these: broth microdilution (NCCLS, 2002), read-out: Minimal inhibitory concentration against Escherichia coli. The protocol: as §1, §2, §3
A further assay has as its system Pasteurella multocida. As to the kind of experiment: Broth microdilution susceptibility testing (MIC), Pasteurella multocida. The conditions noted are these: broth microdilution (NCCLS, 2002), read-out: Minimal inhibitory concentration against Pasteurella multocida. The protocol: as §1, §2, §3
A further assay relates to Staphylococcus aureus. As to the kind of experiment: Broth microdilution susceptibility testing (MIC), Staphylococcus aureus. The following applies: broth microdilution (NCCLS, 2002), read-out: Minimal inhibitory concentration against Staphylococcus aureus. The protocol:
as §1, §2, §3

In the next assay the test system is Mannheimia haemolytica. The assay can be described thus: Broth microdilution susceptibility testing (MIC), Mannheimia haemolytica. The conditions noted are these: broth microdilution (NCCLS, 2002), read-out: Minimal inhibitory concentration against Mannheimia haemolytica. The protocol:
as §1, §2, §3

In another assay the test system is five bacterial strains. The assay can be described thus: Broth microdilution susceptibility testing, comparison with florfenicol over the strain panel. The conditions noted are these: five bacterial strains of Table 2. The protocol: as §1, §2, §3

Each structure is given as a SMILES string. Converted amounts (≈) assume the structure as drawn.

This note sets out measurements from patent US7713950B2, “Antibacterial 1-(4-mono-and di-halomethylsulphonylphenyl)-2-acylamino-3-fluoroproponals and preparation thereof” (Intervet Inc., priority 2003, dated 2010).

With `O=C(N[C@H](CO)[C@H](O)c1ccc([N+](=O)[O-])cc1)C(Cl)Cl` [Chloramphenicol, reference compound], the MIC in assay [1] turned out to be 16 µg/mL (≈ 49.5 µM); with Escherichia coli, 4 µg/mL (≈ 12.4 µM); in the assay on Pasteurella multocida, 0.25 µg/mL (≈ 0.774 µM); with Staphylococcus aureus, 8 µg/mL (≈ 24.8 µM); with Mannheimia haemolytica it was 1 µg/mL (≈ 3.09 µM).

As for `O=C(N[C@H](CF)[C@H](O)c1ccc(S(=O)(=O)CF)cc1)C(Cl)Cl` [Compound 1, N-((1S,2R)-1-(Fluoromethyl)-2-{4-[(fluoromethyl)sulfonyl]phenyl}-2-hydroxyethyl)-2,2-dichloroacetamide], the MIC is 2 µg/mL (≈ 5.32 µM) in assay [1]; 4 µg/mL (≈ 10.6 µM) with Escherichia coli; 0.06 µg/mL (≈ 0.159 µM) in the assay on Pasteurella multocida; 2 µg/mL (≈ 5.32 µM) in the assay with Staphylococcus aureus; 0.5 µg/mL (≈ 1.33 µM) in the assay on Mannheimia haemolytica. Besides, the “Activity relative to florfenicol against florfenicol-resistant Pasteurella multocida” value in assay [1] (versus florfenicol) was 8 fold. The “Activity compared with florfenicol over the strains tested” value in the assay with five bacterial strains was “more active than florfenicol for all five bacterial strains”.

`O=C(N[C@H](CF)[C@H](O)c1ccc(S(=O)(=O)CF)cc1)C(F)(F)F` [Compound 2]: the MIC in assay [1] was 8 µg/mL (≈ 22.1 µM); with Escherichia coli it was 32 µg/mL (≈ 88.6 µM); in the assay with Pasteurella multocida it was 1 µg/mL (≈ 2.77 µM); with Staphylococcus aureus, 16 µg/mL (≈ 44.3 µM); in the assay with Mannheimia haemolytica, 0.5 µg/mL (≈ 1.38 µM).

For the compound `O=C(N[C@H](CF)[C@H](O)c1ccc(S(=O)(=O)C(Cl)Cl)cc1)C(Cl)Cl` [Compound 3], the MIC in assay [1] was 4 µg/mL (≈ 9.37 µM); with Escherichia coli, greater than 128 µg/mL; in the assay on Pasteurella multocida, 0.5 µg/mL (≈ 1.17 µM); in the assay with Staphylococcus aureus, 8 µg/mL (≈ 18.7 µM); in the assay on Mannheimia haemolytica, 0.5 µg/mL (≈ 1.17 µM).

For the compound `N#CCC(=O)N[C@H](CF)[C@H](O)c1ccc(S(=O)(=O)CF)cc1` [Compound 4], the MIC is greater than 128 µg/mL in assay [1]; 16 µg/mL (≈ 48.1 µM) in the assay with Escherichia coli; 1 µg/mL (≈ 3.01 µM) with Pasteurella multocida; 8 µg/mL (≈ 24.1 µM) in the assay on Staphylococcus aureus; 0.5 µg/mL (≈ 1.5 µM) with Mannheimia haemolytica.

For `[N-]=[N+]=NCC(=O)N[C@H](CF)[C@H](O)c1ccc(S(=O)(=O)CF)cc1` [Compound 5], the MIC came out at 16 µg/mL (≈ 45.9 µM) in assay [1]; 8 µg/mL (≈ 23 µM) with Escherichia coli; 0.25 µg/mL (≈ 0.718 µM) with Pasteurella multocida; 8 µg/mL (≈ 23 µM) in the assay on Staphylococcus aureus; 0.25 µg/mL (≈ 0.718 µM) in the assay on Mannheimia haemolytica.

As for `C[C@@H](N)C(=O)N[C@H](CF)[C@H](O)c1ccc(S(=O)(=O)CF)cc1` [Compound 6], the MIC worked out at 128 µg/mL (≈ 381 µM) in assay [1]; 32 µg/mL (≈ 95.1 µM) with Escherichia coli; 1 µg/mL (≈ 2.97 µM) in the assay on Pasteurella multocida; 64 µg/mL (≈ 190 µM) in the assay with Staphylococcus aureus; 1 µg/mL (≈ 2.97 µM) with Mannheimia haemolytica.

For the compound `NCC(=O)N[C@H](CF)[C@H](O)c1ccc(S(=O)(=O)CF)cc1` [Compound 7], the MIC in assay [1] was greater than 128 µg/mL; in the assay on Escherichia coli, 128 µg/mL (≈ 397 µM); in the assay on Pasteurella multocida it was 1 µg/mL (≈ 3.1 µM); in the assay on Staphylococcus aureus, 64 µg/mL (≈ 199 µM); in the assay with Mannheimia haemolytica, 1 µg/mL (≈ 3.1 µM).

In the case of `O=C(N[C@H](CF)[C@H](O)c1ccc(S(=O)(=O)C(F)F)cc1)C(Cl)Cl` [Compound 8], the MIC in assay [1] was 2 µg/mL (≈ 5.07 µM); in the assay on Escherichia coli, 16 µg/mL (≈ 40.6 µM); in the assay on Pasteurella multocida it was 0.125 µg/mL (≈ 0.317 µM); in the assay on Staphylococcus aureus, 4 µg/mL (≈ 10.1 µM); with Mannheimia haemolytica, 0.5 µg/mL (≈ 1.27 µM).

For `O=C(N[C@H](CF)[C@H](O)c1ccc(S(=O)(=O)CF)cc1)C(F)F` [Compound 9], the MIC is 8 µg/mL (≈ 23.3 µM) in assay [1]; 4 µg/mL (≈ 11.7 µM) with Escherichia coli; 0.25 µg/mL (≈ 0.728 µM) in the assay on Pasteurella multocida; 8 µg/mL (≈ 23.3 µM) in the assay with Staphylococcus aureus; 0.5 µg/mL (≈ 1.46 µM) in the assay on Mannheimia haemolytica.

Consider `O=C(N[C@H](CF)[C@H](O)c1ccc(S(=O)(=O)CF)cc1)C(Cl)Br` (stereo partly drawn) [Compound 10], for which the MIC in assay [1] worked out at 4 µg/mL (≈ 9.51 µM); in the assay on Escherichia coli it was 8 µg/mL (≈ 19 µM); in the assay on Pasteurella multocida, 0.25 µg/mL (≈ 0.594 µM); in the assay on Staphylococcus aureus it was 4 µg/mL (≈ 9.51 µM); in the assay with Mannheimia haemolytica, 0.5 µg/mL (≈ 1.19 µM).

In the case of `O=C(N[C@H](CF)[C@H](O)c1ccc(S(=O)(=O)CF)cc1)C(F)Cl` (stereo partly drawn) [Compound 11], the MIC was determined as 4 µg/mL (≈ 11.1 µM) in assay [1]; 4 µg/mL (≈ 11.1 µM) with Escherichia coli; 0.25 µg/mL (≈ 0.695 µM) with Pasteurella multocida; 2 µg/mL (≈ 5.56 µM) in the assay with Staphylococcus aureus; 0.25 µg/mL (≈ 0.695 µM) with Mannheimia haemolytica.

`CC(=O)N[C@H](CF)[C@H](O)c1ccc(S(=O)(=O)CF)cc1` [Compound 12]: the MIC in assay [1] was 32 µg/mL (≈ 104 µM); in the assay on Escherichia coli, greater than 128 µg/mL; with Pasteurella multocida, 1 µg/mL (≈ 3.25 µM); in the assay with Staphylococcus aureus, greater than 128 µg/mL; with Mannheimia haemolytica it was 2 µg/mL (≈ 6.51 µM).

`CS(=O)(=O)c1ccc([C@@H](O)[C@@H](CF)NC(=O)C(Cl)Cl)cc1` [Florfenicol, reference compound]: the MIC in assay [1] is 16 µg/mL (≈ 44.7 µM); with Escherichia coli, 8 µg/mL (≈ 22.3 µM); in the assay with Pasteurella multocida, 0.25 µg/mL (≈ 0.698 µM); in the assay with Staphylococcus aureus, 8 µg/mL (≈ 22.3 µM); in the assay on Mannheimia haemolytica it was 1 µg/mL (≈ 2.79 µM).

For `CS(=O)(=O)c1ccc([C@@H](O)[C@@H](CO)NC(=O)C(Cl)Cl)cc1` [Thiamphenicol, reference compound], the MIC with Escherichia coli stood at 64 µg/mL (≈ 180 µM); in the assay with Pasteurella multocida, 0.25 µg/mL (≈ 0.702 µM); with Mannheimia haemolytica it was 1 µg/mL (≈ 2.81 µM).
